Measured values: patent US8349801B2, “Peptide ligands for G-protein coupled receptors” (priority 2006, dated 2013)
No end group written: not given here.

What was measured:
[1] = system: Zymosan-induced murine dorsal air pouch model; assay type: in vivo, mice; settings: 200 μg/mouse i.v., 4 h
Experimental: In order to analyze the ability of P58 to exert in vivo effects via the FPRL1 receptor, an acute experimental model of inflammation, the Zymosan-induced murine dorsal air pouch model, was used.
Male out-bred Swiss albino mice were purchased from Harlan, UK (T.O. strain) and maintained on a standard chow pellet diet with tap water ad libitum and a 12:00 h light/dark cycle. All animals were housed for 7 days prior to experimentation to allow body weight to reach ˜30 g on the day of the experiment.
Drugs were stored at −20° C. and defrosted on the day of the experiment. Peptide P58 was provided lyophilized; it was taken back to room temperature and dissolved with sterile PBS before use to make an initial 1 mg/ml solution. […]
Flow cytometry was performed using FACScan analyser (Becton Dickinson, Cowley, UK) with air-cooled 100 mW argon laser tuned to 488 nm connected to an Apple Macintosh G3 computer running Cell Quest II software. […] Cells positive for GR-1 were detected in the FL2 channel (wavelength of 548 nm). Data are expressed as percentage of positive cells (in relation to the specific mAb). […] Once determined, quadrants were rigorously maintained for all analyses.
Data are shown for single mice, and also shown as mean±S.E. of (n) mice per group. Statistical differences were determined by ANOVA, plus Student Newman Keuls test. […]

[2] = target: T1, FPRL1 (Homo sapiens, UniProt P25090); test: Calcium flux in CHO-K1 cells co-transfected with FPRL1 and Gα16; assay type: cell-based; design: expressed in transfected cells; host or cells: CHO-K1 (ATCC-CCL-61), transient co-transfection
T1 sequence (P25090 1-351): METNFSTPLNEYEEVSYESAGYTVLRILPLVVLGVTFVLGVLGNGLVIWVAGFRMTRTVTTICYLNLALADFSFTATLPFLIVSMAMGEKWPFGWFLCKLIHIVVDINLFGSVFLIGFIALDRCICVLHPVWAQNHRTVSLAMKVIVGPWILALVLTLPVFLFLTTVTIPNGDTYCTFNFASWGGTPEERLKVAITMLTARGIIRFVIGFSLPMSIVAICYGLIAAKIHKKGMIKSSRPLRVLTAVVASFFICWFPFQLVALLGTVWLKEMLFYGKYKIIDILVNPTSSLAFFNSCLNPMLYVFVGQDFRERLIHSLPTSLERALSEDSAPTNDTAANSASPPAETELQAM
Experimental: The assay was carried out in CHO cells were transiently transfected with the GPCR of choice, by utilizing the promiscuous Gα16 to divert signaling to the Gq pathway, thus enabling readout of GPCR activation by testing for Calcium flux as described by Liu et al 2003 (Biomol Screen 8, 39-49).
All the peptides thus obtained were tested for their ability to change calcium flux in CHO—K1 cells (ATCC-CCL-61) transiently co-transfected with an expression vector containing the GPCR of choice and expression vector containing the Gα16 encoding cDNA. Expression constructs containing cDNA clones for MrgX1, MrgX2, Mas or FPRL1 were commercially obtained in one of the following expression vectors: pcDNA3.1, pCMV6, or MO2.
Transient transfections were performed using CHO—K1 cells as host cells. Cells (12 million) were plated into T75 flasks on the day preceding transfection. Cells were transfected with the appropriate GPCR expression vector and with a vector expressing Gα16 using a lipid-based reagent, MTI, according to the manufacturer's recommendation. Cells were transfected for 5 hours, then re-plated into 96-well dishes (60,000 cells per well) and grown overnight.
On the day of the experiment, cells were loaded with Fluo4-NW (Invitrogen) according to the manufacturer's recommendation. Plates were loaded into a FlexStation™ (Molecular Devices) plate reader and fluorescence was monitored. Seventeen seconds following initiation of reading, cells were stimulated with the indicated agonist/compound at final concentration of 1 μM. Each 96 well plate contained cells transfected with one GPCR expression vector and each of the examined peptides was tested in triplicate.
We defined a hit as a peptide which elicited a clear and distinct increase in intracellular calcium that is clearly visible and statistically significant upon examination of the calcium trace for at least two repeats. The criterion for statistical significance was a p-value lower than 0.001 in a t-test comparing the levels of calcium before and after peptide addition.
Based on dose response experiments, EC50 best fit values were calculated by non-linear regression of sigmoidal dose-response curves, using Prism version 4 (GraphPad Software Inc., San Diego, Calif.). The formulae for the sigmoidal dose-response curves was defined as Y=Bottom+(Top−Bottom)/(1+10^ (LogEC50−X)*HillSlope))
The ability of Peptides to change calcium flux was examined in CHO—K1 cells co-transfected with FPRL1 and Gal 6.

[3] = target: T1, FPRL1; test: Competitive radioligand binding assay ([125I] WKYMVm) to FPRL1 in CHO transfected cells; design: expressed in transfected cells; host or cells: CHO transfected cells; settings: 0.025 nM [125I] WKYMVm, 90 minutes at 25° C.; read-out: IC50, inhibition of W peptide binding
Experimental: The specific binding of Peptide 58 (SEQ ID NO:1) to FPRL1 was analyzed by testing its ability to compete with 0.025 nM [^125I] WKYMVm (W peptide), a known agonist of FPRL1, for binding to FPRL1 in CHO transfected cells. CKβ8-1 (aa 46-137), another known ligand of FPRL1 was used as a positive control in this assay (Chiang et al 2006, Pharmacological Reviews 58, 463-487). Peptides were incubated with cells for 90 minutes at 25° C., in the presence of Incubation Buffer (50 mM HEPES, pH 7.4, 100 mM NaCl, 5 mM KCl, 5 mM MgCl2, 2 mM Ca Cl2, 0.5% BSA) and the amount of radioactive W peptide was measured.

| Substance | inhibition of leukocyte accumulation triggered by zymosan A [1] | inhibition of neutrophil (GR-1+) accumulation triggered by zymosan A ([1]; FACS) | calcium flux relative to the negative control ([2]; 1 μM, three wells, about 20 to 90 seconds) | calcium flux, P58 and derivatives ([2]; dose response) | IC50 [3] |
| --- | --- | --- | --- | --- | --- |
| Ac2-26: a peptide derived from the N-terminus of AnnexinI; known FPRL1 agonist possessing anti-inflammatory activity; positive control (AMVSEFLKQAWFIENEEQEYVQTVK) | inhibited significantly | 52% | – | – | – |
| TIPMFVPESTSKLQKFTSWFM-NH2 [Peptide P58] | – | – | increased calcium flux | elicited calcium flux | 0.189 µM |
